Columns and labels:
Type in all cases: biochemical
[1] = target: T1, JAK2 (Homo sapiens, UniProt O60674); experiment: JAK2 enzyme inhibition test (LANCE method); conditions: 1 μM test compound; read-out: JAK2 enzyme inhibitory activity (%, 1 μM)
T1 construct: purchased Invitrogen
In short: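 Recombinant JAK2 (6 ng/mL solution) phosphorylated ULight-JAK1 peptide (300 nM solution) with ATP (45 μM solution) in pH 7.5 HEPES/MgCl2/DTT buffer for 1 hr at room temperature. After EDTA stop and europium anti-phosphotyrosine antibody for 1 hr, TR-FRET read at 665 nm; inhibition relative to enzyme-free wells as 100%.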

[2] = target: T2, JAK3 (Homo sapiens, UniProt P52333); experiment: JAK3 enzyme inhibition test (LANCE method); conditions: 1 μM test compound; read-out: JAK3 enzyme inhibitory activity (%, 1 μM)
T2 construct: purchased Invitrogen
T2 sequence (P52333 1-1124): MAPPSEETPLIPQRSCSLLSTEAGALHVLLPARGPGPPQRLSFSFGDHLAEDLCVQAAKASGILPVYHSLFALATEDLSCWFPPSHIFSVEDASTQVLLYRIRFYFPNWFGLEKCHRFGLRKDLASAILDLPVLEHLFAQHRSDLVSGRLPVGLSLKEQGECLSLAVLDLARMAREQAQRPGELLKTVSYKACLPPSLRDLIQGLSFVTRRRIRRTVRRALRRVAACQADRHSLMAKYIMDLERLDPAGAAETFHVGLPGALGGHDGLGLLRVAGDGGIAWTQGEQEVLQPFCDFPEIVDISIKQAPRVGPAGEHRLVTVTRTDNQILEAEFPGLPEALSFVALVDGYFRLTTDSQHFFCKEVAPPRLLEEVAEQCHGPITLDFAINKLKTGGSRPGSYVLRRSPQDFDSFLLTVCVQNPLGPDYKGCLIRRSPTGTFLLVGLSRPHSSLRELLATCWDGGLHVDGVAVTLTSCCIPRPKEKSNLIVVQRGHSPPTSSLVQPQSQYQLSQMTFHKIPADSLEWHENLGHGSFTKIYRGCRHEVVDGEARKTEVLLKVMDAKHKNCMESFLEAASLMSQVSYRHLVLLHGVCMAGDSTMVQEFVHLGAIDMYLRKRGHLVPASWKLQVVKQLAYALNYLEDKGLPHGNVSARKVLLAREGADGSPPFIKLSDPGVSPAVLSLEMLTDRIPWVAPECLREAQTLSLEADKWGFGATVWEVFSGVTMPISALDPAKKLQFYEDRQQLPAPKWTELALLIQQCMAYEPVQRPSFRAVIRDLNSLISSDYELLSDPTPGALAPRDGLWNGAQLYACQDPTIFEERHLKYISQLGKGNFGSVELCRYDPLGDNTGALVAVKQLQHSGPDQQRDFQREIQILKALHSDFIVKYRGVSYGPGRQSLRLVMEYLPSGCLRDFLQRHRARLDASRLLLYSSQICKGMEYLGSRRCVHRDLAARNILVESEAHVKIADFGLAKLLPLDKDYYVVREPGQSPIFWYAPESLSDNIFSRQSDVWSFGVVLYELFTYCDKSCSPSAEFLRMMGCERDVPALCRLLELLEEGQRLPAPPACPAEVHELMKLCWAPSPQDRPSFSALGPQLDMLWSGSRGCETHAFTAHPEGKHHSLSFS
In short: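 Recombinant JAK3 (12 ng/mL solution) with ULight-JAK1 peptide (300 nM solution) and ATP (15 μM solution) in HEPES pH 7.5 buffer, 1 h at room temperature. EDTA stop with Eu-anti-phosphotyrosine antibody; TR-FRET at 665 nm. Inhibition relative to enzyme-free wells as 100%.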

[3] = target: T3, JAK1 (Homo sapiens, UniProt P23458); experiment: JAK1 enzyme inhibition test (LANCE method); conditions: 1 μM test compound; read-out: JAK1 enzyme inhibitory activity (%, 1 μM)
T3 construct: purchased Invitrogen
In short: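 TR-FRET (LANCE) with ULight-JAK1 peptide (300 nM working solution) and ATP (150 μM working solution) in HEPES pH 7.5, MgCl2, EGTA, DTT buffer; 1 h at room temperature. EDTA stop plus Eu-anti-phosphotyrosine antibody, 665 nm read after 1 h. Inhibition relative to enzyme-free wells as 100%.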

[4] = target: T4, TYK2 (Homo sapiens, UniProt P29597); experiment: TYK2 enzyme inhibition test (LANCE method); conditions: 1 μM test compound; read-out: TYK2 enzyme inhibitory activity (%, 1 μM)
T4 construct: purchased Invitrogen
In short: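 Recombinant TYK2 (375 ng/mL working solution) with ULight-JAK1 peptide (300 nM working solution) and ATP (30 μM working solution) in HEPES pH 7.5 buffer with MgCl2, EGTA, DTT, Tween20, BSA, reacted 1 h at RT. EDTA-stopped, Eu-anti-phosphotyrosine TR-FRET read at 665 nm; inhibition relative to enzyme-free wells as 100%.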

T3 sequence (P23458 whole entry): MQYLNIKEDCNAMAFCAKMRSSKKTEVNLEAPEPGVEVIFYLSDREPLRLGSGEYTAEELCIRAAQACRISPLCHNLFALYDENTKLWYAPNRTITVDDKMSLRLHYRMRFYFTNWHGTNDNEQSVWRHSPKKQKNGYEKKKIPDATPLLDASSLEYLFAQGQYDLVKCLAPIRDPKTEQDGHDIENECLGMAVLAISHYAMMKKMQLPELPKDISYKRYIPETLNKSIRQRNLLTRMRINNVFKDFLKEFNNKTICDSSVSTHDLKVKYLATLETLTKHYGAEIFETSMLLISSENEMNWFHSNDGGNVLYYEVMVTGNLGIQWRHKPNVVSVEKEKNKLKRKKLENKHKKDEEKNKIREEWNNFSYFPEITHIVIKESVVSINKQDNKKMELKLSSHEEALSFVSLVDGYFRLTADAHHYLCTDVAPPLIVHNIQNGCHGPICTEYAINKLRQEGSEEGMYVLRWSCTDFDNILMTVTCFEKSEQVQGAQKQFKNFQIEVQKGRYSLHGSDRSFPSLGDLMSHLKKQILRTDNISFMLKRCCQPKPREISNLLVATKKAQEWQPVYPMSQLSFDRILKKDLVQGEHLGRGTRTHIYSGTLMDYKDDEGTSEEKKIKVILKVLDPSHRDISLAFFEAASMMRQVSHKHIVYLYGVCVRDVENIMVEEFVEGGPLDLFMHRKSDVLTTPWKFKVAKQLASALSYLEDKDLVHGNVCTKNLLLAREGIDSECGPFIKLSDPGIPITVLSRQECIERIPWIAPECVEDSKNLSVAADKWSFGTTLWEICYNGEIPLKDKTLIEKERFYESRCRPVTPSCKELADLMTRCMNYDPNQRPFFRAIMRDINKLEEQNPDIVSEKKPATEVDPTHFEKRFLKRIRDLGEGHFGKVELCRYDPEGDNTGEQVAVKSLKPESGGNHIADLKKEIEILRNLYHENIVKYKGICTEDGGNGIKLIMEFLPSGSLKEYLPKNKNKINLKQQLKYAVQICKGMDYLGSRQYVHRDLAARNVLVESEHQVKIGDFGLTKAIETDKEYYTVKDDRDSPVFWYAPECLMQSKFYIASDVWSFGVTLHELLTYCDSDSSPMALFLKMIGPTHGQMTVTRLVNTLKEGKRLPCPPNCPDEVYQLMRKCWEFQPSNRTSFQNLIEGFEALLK
T4 sequence (P29597 whole entry): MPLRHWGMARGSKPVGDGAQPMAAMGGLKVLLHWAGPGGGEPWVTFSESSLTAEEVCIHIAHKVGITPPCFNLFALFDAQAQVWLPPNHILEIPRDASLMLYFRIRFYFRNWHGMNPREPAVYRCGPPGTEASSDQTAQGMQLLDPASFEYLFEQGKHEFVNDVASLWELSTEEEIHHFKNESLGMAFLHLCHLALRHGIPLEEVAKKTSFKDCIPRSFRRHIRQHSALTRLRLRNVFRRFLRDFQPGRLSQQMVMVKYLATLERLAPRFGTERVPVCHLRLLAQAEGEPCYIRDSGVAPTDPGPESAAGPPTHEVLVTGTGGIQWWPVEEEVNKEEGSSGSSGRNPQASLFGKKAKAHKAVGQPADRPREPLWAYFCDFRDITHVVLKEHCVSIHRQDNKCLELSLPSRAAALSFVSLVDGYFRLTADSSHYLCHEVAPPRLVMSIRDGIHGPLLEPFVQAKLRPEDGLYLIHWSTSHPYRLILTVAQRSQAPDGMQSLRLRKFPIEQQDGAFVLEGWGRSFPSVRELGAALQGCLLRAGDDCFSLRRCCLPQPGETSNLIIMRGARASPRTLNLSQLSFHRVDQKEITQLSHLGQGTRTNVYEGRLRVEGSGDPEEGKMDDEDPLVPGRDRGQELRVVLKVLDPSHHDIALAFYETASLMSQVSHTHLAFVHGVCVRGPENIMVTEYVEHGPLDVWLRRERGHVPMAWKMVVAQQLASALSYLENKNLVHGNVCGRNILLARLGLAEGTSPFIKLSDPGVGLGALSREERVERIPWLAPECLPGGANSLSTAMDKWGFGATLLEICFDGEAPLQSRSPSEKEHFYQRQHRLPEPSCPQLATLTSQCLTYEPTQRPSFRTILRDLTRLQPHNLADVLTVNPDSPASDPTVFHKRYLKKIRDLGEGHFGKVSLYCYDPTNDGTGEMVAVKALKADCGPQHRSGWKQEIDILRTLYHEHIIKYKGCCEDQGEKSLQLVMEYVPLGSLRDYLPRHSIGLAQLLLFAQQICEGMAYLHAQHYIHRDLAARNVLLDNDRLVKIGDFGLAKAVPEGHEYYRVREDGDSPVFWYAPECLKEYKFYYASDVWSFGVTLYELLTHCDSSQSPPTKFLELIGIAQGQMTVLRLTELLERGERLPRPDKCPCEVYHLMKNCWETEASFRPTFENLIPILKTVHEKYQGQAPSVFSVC
T1 sequence (O60674 whole entry): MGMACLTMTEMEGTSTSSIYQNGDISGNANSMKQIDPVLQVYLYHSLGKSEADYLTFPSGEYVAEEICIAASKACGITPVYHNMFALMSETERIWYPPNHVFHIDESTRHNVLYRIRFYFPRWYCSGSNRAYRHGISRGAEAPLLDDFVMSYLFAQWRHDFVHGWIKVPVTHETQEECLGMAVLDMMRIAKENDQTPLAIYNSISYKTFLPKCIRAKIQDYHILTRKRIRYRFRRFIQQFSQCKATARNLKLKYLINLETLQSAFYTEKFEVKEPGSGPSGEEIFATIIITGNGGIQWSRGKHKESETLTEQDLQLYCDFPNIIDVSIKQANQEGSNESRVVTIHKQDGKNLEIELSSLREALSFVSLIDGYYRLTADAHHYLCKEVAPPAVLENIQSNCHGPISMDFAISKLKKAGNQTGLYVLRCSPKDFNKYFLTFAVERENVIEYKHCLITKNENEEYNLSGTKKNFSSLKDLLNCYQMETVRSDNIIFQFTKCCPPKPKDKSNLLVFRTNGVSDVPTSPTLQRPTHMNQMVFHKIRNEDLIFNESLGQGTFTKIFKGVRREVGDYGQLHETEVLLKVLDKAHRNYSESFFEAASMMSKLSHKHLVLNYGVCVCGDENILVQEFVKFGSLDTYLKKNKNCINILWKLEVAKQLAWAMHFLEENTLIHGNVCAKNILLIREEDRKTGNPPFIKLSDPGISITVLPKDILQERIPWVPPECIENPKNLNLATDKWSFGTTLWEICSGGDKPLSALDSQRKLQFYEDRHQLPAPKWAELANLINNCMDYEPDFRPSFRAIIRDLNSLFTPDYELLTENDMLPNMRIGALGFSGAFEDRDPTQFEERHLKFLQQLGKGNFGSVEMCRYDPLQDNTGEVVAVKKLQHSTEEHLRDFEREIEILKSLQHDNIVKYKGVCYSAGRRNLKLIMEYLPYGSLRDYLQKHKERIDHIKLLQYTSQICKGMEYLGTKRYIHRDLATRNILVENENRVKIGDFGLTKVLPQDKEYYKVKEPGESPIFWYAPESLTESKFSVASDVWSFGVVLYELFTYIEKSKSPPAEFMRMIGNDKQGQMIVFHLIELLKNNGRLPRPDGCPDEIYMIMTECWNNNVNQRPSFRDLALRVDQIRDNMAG

Structure (SMILES)	inhibition at 1 µM [1]	inhibition at 1 µM [2]	inhibition at 1 µM [3]	inhibition at 1 µM [4]
Cn1nc(-c2cn(C(C3CC3)C3CC3)c(=O)c3c(N)n[nH]c23)cc1N1CCN2CCC[C@H]2C1 [Example 162, 3-amino-5-(dicyclopropylmethyl)-7-(5-((8aS)-hexahydropyrrolo[1,2-a]pyrazin-2(1H)-yl)-1-methyl-1H-pyrazol-3-yl)-1,5-dihydro-4H-pyrazolo[4,3-c]pyridin-4-one]	100%	100%	99%	101%
Cn1nc(-c2cn(C(C3CC3)C3CC3)c(=O)c3c(N)n[nH]c23)cc1N1CCN2CCC[C@@H]2C1 [Example 163, 3-amino-5-(dicyclopropylmethyl)-7-(5-((8aR)-hexahydropyrrolo[1,2-a]pyrazin-2(1H)-yl)-1-methyl-1H-pyrazol-3-yl)-1,5-dihydro-4H-pyrazolo[4,3-c]pyridin-4-one]	100%	100%	100%	101%
CO[C@@H]1CCN(c2cc(-c3cn(C(C4CC4)C4CC4)c(=O)c4c(N)n[nH]c34)nn2C)C1 [Example 164, 3-amino-5-(dicyclopropylmethyl)-7-(5-((3R)-3-methoxypyrrolidin-1-yl)-1-methyl-1H-pyrazol-3-yl)-1,5-dihydro-4H-pyrazolo[4,3-c]pyridin-4-one]	99%	100%	99%	101%
Cn1nc(-c2cn(C(C3CC3)C3CC3)c(=O)c3c(N)n[nH]c23)cc1C(F)(F)F [Example 165, 3-amino-5-(dicyclopropylmethyl)-7-(1-methyl-5-(trifluoromethyl)-1H-pyrazol-3-yl)-1,5-dihydro-4H-pyrazolo[4,3-c]pyridin-4-one]	98%	100%	100%	100%
Cn1nc(-c2cn(C(C3CC3)C3CC3)c(=O)c3c(N)n[nH]c23)cc1N1CC[C@H](O)C1 [Example 166, 3-amino-5-(dicyclopropylmethyl)-7-(5-((3S)-3-hydroxypyrrolidin-1-yl)-1-methyl-1H-pyrazol-3-yl)-1,5-dihydro-4H-pyrazolo[4,3-c]pyridin-4-one]	99%	100%	100%	101%
CO[C@H]1CCN(c2cc(-c3cn(C(C4CC4)C4CC4)c(=O)c4c(N)n[nH]c34)nn2C)C1 [Example 167, 3-amino-5-(dicyclopropylmethyl)-7-(5-((3S)-3-methoxypyrrolidin-1-yl)-1-methyl-1H-pyrazol-3-yl)-1,5-dihydro-4H-pyrazolo[4,3-c]pyridin-4-one]	99%	100%	100%	101%
Cn1nc(-c2cn(C(C3CC3)C3CC3)c(=O)c3c(N)n[nH]c23)cc1N1CCC[C@H]1CO [Example 168, 3-amino-5-(dicyclopropylmethyl)-7-(5-((2S)-2-(hydroxymethyl)pyrrolidin-1-yl)-1-methyl-1H-pyrazol-3-yl)-1,5-dihydro-4H-pyrazolo[4,3-c]pyridin-4-one]	94%	100%	98%	101%
Cn1nc(-c2cn(C(C3CC3)C3CC3)c(=O)c3c(N)n[nH]c23)cc1N1CC[C@@H](O)C1 [Example 169, 3-amino-5-(dicyclopropylmethyl)-7-(5-((3R)-3-hydroxypyrrolidin-1-yl)-1-methyl-1H-pyrazol-3-yl)-1,5-dihydro-4H-pyrazolo[4,3-c]pyridin-4-one]	98%	99%	98%	98%
Cn1nc(-c2cn(C(C3CC3)C3CC3)c(=O)c3c(N)n[nH]c23)cc1N1CCC(F)(F)C1 [Example 170, 3-amino-5-(dicyclopropylmethyl)-7-(5-(3,3-difluoropyrrolidin-1-yl)-1-methyl-1H-pyrazol-3-yl)-1,5-dihydro-4H-pyrazolo[4,3-c]pyridin-4-one]	99%	99%	99%	98%
CN(C[C@H]1CCCN1c1cc(-c2cn(C(C3CC3)C3CC3)c(=O)c3c(N)n[nH]c23)nn1C)C(=O)OC(C)(C)C [Example 171, tert-butyl(((2R)-1-(3-(3-amino-5-(dicyclopropylmethyl)-4-oxo-4,5-dihydro-1H-pyrazolo[4,3-c]pyridin-7-yl)-1-methyl-1H-pyrazol-5-yl)pyrrolidin-2-yl)methyl)methylcarbamate]	94%	98%	93%	98%
CNC[C@H]1CCCN1c1cc(-c2cn(C(C3CC3)C3CC3)c(=O)c3c(N)n[nH]c23)nn1C [Example 172, 3-amino-5-(dicyclopropylmethyl)-7-(1-methyl-5-((2R)-2-((methylamino)methyl)pyrrolidin-1-yl)-1H-pyrazol-3-yl)-1,5-dihydro-4H-pyrazolo[4,3-c]pyridin-4-one]	98%	98%	93%	98%
Cc1cc(-c2cn(C(C3CC3)C3CC3)c(=O)c3c(N)n[nH]c23)nn1C [Example 173, 3-amino-5-(dicyclopropylmethyl)-7-(1,5-dimethyl-1H-pyrazol-3-yl)-1,5-dihydro-4H-pyrazolo[4,3-c]pyridin-4-one]	96%	99%	98%	98%
Cn1nc(-c2cn(C(C3CC3)C3CC3)c(=O)c3c(N)n[nH]c23)cc1C(C)(C)O [Example 174, 3-amino-5-(dicyclopropylmethyl)-7-(5-(2-hydroxypropan-2-yl)-1-methyl-1H-pyrazol-3-yl)-1,5-dihydro-4H-pyrazolo[4,3-c]pyridin-4-one]	98%	99%	99%	98%
CC(=O)N(C)C[C@H]1CCCN1c1cc(-c2cn(C(C3CC3)C3CC3)c(=O)c3c(N)n[nH]c23)nn1C [Example 175, N-(((2R)-1-(3-(3-amino-5-(dicyclopropylmethyl)-4-oxo-4,5-dihydro-1H-pyrazolo[4,3-c]pyridin-7-yl)-1-methyl-1H-pyrazol-5-yl)pyrrolidin-2-yl)methyl)-N-methylacetamide]	97%	98%	96%	98%
CN(C[C@H]1CCCN1c1cc(-c2cn(C(C3CC3)C3CC3)c(=O)c3c(N)n[nH]c23)nn1C)S(C)(=O)=O [Example 176, N-(((2R)-1-(3-(3-amino-5-(dicyclopropylmethyl)-4-oxo-4,5-dihydro-1H-pyrazolo[4,3-c]pyridin-7-yl)-1-methyl-1H-pyrazol-5-yl)pyrrolidin-2-yl)methyl)-N-methylmethanesulfonamide]	98%	99%	97%	98%

— patent publication US9637483B2, “Heterocyclic compound” (TAKEDA PHARMACEUTICAL COMPANY LIMITED, priority 2013, dated 2017)
